This note sets out measurements from ChEMBL document CHEMBL1135045, “alpha(1)-Adrenoceptor antagonists. Rational design, synthesis and biological evaluation of new trazodone-like compounds” (Bioorg Med Chem Lett, 2002).

Assay [1] has as its target T1, Adrenergic receptor alpha-2 (Rattus norvegicus, UniProt P22086+P19328+P22909).
T1 sequence (P22086 whole entry): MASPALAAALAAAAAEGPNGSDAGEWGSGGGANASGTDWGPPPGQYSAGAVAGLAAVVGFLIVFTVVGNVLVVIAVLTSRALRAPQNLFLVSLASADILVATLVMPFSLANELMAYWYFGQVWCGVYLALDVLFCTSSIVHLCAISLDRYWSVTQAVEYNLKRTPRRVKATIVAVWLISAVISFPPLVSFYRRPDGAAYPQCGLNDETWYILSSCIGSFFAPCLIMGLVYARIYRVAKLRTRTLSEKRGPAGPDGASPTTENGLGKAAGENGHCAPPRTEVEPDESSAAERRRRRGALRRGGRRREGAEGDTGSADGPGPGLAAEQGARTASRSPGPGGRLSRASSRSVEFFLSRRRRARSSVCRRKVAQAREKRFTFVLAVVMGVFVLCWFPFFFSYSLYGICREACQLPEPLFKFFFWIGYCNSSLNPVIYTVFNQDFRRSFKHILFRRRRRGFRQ
T1 sequence (P19328 whole entry): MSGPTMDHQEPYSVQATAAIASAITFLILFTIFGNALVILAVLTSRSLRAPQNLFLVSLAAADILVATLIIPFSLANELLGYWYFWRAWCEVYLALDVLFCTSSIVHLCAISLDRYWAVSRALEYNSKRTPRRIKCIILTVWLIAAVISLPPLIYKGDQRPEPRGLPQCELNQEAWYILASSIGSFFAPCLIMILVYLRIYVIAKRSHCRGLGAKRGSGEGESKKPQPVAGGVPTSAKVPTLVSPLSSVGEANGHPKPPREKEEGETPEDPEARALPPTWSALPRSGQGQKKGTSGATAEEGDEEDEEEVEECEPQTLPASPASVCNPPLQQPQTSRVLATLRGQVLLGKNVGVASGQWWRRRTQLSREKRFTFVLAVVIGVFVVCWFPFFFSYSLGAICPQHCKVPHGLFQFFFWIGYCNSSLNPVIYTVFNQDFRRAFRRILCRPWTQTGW
T1 sequence (P22909 whole entry): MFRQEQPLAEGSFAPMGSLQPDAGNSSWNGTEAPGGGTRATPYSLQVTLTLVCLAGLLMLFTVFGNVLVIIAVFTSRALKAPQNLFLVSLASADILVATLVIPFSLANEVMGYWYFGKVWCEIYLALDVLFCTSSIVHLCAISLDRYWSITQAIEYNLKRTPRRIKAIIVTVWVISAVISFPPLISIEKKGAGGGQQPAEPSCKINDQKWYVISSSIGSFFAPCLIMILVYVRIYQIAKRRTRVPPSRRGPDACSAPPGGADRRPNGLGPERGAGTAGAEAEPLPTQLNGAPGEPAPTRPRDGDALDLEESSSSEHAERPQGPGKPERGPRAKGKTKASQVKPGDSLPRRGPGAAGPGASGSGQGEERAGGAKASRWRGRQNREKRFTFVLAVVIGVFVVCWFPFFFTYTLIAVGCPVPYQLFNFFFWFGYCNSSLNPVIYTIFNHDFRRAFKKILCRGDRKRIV
The experiment in a line: Binding affinity by its ability to displace [3H]rauwolscine radioligand from Alpha-2 adrenergic receptor on rat cerebral cortex. Type of assay: tissue-based.

The target in assay [2] is T2, Adrenergic receptor alpha-1 (Rattus norvegicus, UniProt P15823+P23944+P43140).
T2 sequence (P15823 whole entry): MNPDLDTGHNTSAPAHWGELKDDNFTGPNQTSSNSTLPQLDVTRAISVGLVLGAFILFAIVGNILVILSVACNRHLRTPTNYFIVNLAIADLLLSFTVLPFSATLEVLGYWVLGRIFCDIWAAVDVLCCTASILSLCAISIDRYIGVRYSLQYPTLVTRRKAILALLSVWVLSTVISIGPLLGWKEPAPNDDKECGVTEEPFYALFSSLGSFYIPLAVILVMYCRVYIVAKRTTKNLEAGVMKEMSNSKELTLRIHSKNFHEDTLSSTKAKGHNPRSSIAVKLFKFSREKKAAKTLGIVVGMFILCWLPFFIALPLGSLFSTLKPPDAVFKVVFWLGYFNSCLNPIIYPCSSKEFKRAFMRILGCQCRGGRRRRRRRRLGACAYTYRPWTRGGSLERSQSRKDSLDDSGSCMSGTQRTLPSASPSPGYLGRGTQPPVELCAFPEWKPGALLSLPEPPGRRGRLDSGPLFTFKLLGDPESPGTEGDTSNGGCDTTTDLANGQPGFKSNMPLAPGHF
T2 sequence (P23944 whole entry): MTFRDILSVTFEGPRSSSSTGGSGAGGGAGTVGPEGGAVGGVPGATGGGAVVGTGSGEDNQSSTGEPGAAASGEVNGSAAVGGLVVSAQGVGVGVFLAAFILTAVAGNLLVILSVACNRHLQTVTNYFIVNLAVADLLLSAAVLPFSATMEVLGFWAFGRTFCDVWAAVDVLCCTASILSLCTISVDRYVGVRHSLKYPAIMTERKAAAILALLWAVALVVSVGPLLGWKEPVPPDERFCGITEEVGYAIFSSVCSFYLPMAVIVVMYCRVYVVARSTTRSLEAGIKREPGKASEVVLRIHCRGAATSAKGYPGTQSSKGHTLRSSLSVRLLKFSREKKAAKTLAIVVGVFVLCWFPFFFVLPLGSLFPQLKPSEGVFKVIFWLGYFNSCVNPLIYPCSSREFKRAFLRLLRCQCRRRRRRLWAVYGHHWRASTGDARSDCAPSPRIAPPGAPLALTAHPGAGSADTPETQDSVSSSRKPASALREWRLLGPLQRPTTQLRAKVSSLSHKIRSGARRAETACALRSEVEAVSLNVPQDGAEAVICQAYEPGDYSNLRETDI
T2 sequence (P43140 whole entry): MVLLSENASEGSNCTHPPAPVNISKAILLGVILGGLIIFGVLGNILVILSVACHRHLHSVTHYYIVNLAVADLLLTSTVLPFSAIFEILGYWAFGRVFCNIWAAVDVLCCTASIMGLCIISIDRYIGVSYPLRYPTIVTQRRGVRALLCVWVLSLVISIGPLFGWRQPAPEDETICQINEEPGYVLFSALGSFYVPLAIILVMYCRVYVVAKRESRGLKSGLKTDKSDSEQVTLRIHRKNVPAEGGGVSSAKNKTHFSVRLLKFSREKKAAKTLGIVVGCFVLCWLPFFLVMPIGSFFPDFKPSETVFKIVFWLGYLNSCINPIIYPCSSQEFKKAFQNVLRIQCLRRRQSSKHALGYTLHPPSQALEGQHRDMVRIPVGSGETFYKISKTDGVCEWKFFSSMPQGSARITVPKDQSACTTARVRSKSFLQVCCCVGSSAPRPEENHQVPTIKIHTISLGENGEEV
The experiment in a line: Binding affinity by its ability to displace [3H]prazosin radioligand from Alpha-1 adrenergic receptor on rat cerebral cortex. It is filed as tissue-based.

Turning to `COc1ccccc1N1CCN(CCCCn2nc(-n3cnc4ccccc43)ccc2=O)CC1`, the Ki amounted to 16 nM in assay [1] and 1.1 nM in assay [2].

Take `O=c1ccc(-n2ccnc2)nn1CCCN1CCN(c2ccccc2Cl)CC1`: the Ki turned out to be 436.6 nM in assay [1] and 48.3 nM in assay [2].

Consider `COc1ccccc1N1CCN(CCCn2nc(-n3cnc4ccccc43)ccc2=O)CC1`, for which the Ki in assay [1] is given as 158.3 nM; in assay [2], 6.5 nM.

For `O=c1ccc(-n2cnc3ccccc32)nn1CCCN1CCN(c2ccccc2Cl)CC1`, the Ki in assay [1] came out at 44.7 nM; in assay [2] it was 15.2 nM.

For the compound `COc1ccccc1N1CCN(CCCn2nc(-n3ccnc3)ccc2=O)CC1`, the Ki worked out at 673.4 nM in assay [1] and 115.4 nM in assay [2].

One may read the Ki as a dissociation constant, usually derived from enzyme kinetics or from competition with a known ligand.
